Experimental data from patent US5945508A, “Substance P treatment for immunostimulation” (priority 1997, dated 1999).

How the values were obtained:
Spleen B Cell = assay: Mitogenesis of spleen B cells, LP-BM5 mouse AIDS model; assay type: in vivo, C57BL6 mice
Description: (§1) C57BL6 mice, average weight of 25-30 grams, were infected with the LP-BM5 murine leukemia retrovirus to simulate the human AIDS virus. […] The mice were divided into two groups; LP-BM5 virus only and LP-BM5 virus+substance P aerosol therapy at 1 μM concentration. The mice were killed at 4 and 8 weeks postinoculation.
The proliferation of splenic B and T cells induced by mitogens was determined by incorporation of radioactive thymidine. Splenocytes in 0.1 ml of cell culture medium (1×10 ^7 cells/ml) were cultured in 96-well flat-bottom cultured plates with ConA and lipopolysaccharide, 5 micrograms/ml). The cells were incubated at 37° C., 5% CO2 incubator for 72 hours for ConA-induced T cell proliferation, and then pulsed with ^3 H-thymidine (1 microCurie/well). After 4 hours for radioactive thymidine uptake, the cells were harvested by a cell sample harvester. Radioactivity was determined by a liquid scintillation counter (Tri-Carb, 2200CA). The T and B cell mitogenesis values were recorded as counts per min in 1×10^7 cells/ml.

immune system = assay: Immunotoxicology of exposure to jet fuel JP-8; assay type: in vivo, C57B16 mice; settings: JP-8 exposed animals treated with Substance P
Description: At 24 hours after the last exposure, the animals were sacrificed and the effects of exposure on the immune system examined. Immune organs (spleen, thymus, blood, lymph nodes and bone marrow) were recovered and analyzed for effects on organ weight, total cell numbers, immune cell populations (by differentials), and lymphocyte subpopulations (by flow cytometry). Assays were also performed to examine the effects of exposure on immune function. […] Similar effects on immune cell subpopulations were also observed in lymph nodes. In the thymus it appeared that the immature CD4^+ CD8^+ cells were differentially lost due to exposure. […] However, these effects are prevented or ameliorated by treatment of the animals with Substance P.

[1] = tested on: murine melanoma B16 cancer cells; assay: B16 melanoma lung tumor colonies after tail vein injection; assay type: in vivo, mice; settings: for mean number of tumor colonies observed in both lungs: 1×10^4 B16 cells/mouse, 4 weeks post-injection; for reduction in tumors: versus controls
From the text: The mice were infected with syngeneic murine melanoma B16 cancer cells by tail vein injection. The dose was 1×10^4 B16 tumor cells/mouse. […] The second group of mice was given their substance P aerosol therapy starting one week after the injection of the B16 cells. The aerosol therapy lasted for one week. Both groups of mice and their corresponding controls (injection with B16 cells and no substance P therapy) were killed at 4 weeks post-injection with B16 cells. The data is presented as the mean number of tumor colonies observed in both lungs.

interleukin-6 = assay: Spleen cytokine ELISA, LP-BM5 mouse AIDS model; assay type: in vivo, C57BL6 mice; settings: SP aerosol 1 μM
Description: as §1
(§2) Spleen cytokine assays for interleukin-6 and interferon-gamma were conducted by standard mouse ELISA assays. The antibodies for IL-6 and interferon-gamma were purchased from Genzyme, Inc. and Collaborative Research, respectively. Briefly, flat bottom polyvinylchloride 96-well enzyme immunoassay plates were coated with […] monoclonal antibody in 0.05 ml bicarbonate buffer (pH 9.6) to each cytokine. After washing in phosphate-buffered saline containing 0.05% (v/v) Tween-20, plates were incubated in blocking reagent (1% bovine serum albumin in buffer). For the standard curves for each cytokine assay, serial dilutions of recombinant cytokine were added to a set of wells from anti-cytokine coated plates. After two hours at room temperature and three subsequent washings, biotinylated-anti-cytokine will be added to respective wells diluted 1:500 in blocking reagent. All plates were then incubated for an additional two hours at room temperature, washed three times, then […] of 1:5000 avidin-peroxidase was added. After an additional 3 washes, […] of the substrate mixture was added to each well (ABTS plus hydrogen peroxide solution). After an incubation at room temperature for 10-15 minutes, stopping reagent ([…] of a 12 g NaOH in 50 ml water solution) was added. Readings were taken at 405 nm with 490 nm reference using a microELISA spectrophotometric plate reader. Values of interluekin-6 and interferon-gamma were expressed as nanograms/ml.

interferon-gamma = assay: Spleen cytokine ELISA, LP-BM5 mouse AIDS model; assay type: in vivo, C57BL6 mice; settings: SP aerosol 1 μM
Description: as §1, §2

[2] = 8 weeks post-infection with LP-BM5

How did the “Spleen B Cell Mitogenesis” value (Spleen B Cell; 4 weeks after LP-BM5 infection, SP aerosol 1 μM 3 days/week, 25 Hours in Culture) turn out when Substance P [SP] was run?
Its value is 2063 (448) counts per min.

What about the “Spleen B Cell Mitogenesis” value (Spleen B Cell; 4 weeks after LP-BM5 infection, SP aerosol 1 μM 3 days/week, 48 Hours in Culture) of the same substance?
The value was 1369 (231) counts per min.

And the “Spleen B Cell Mitogenesis” value (Spleen B Cell; 4 weeks after LP-BM5 infection, SP aerosol 1 μM 3 days/week, 72 Hours in Culture)?
Its value is 1642 (158) counts per min.

And the “Spleen B Cell Mitogenesis” value (Spleen B Cell; 8 weeks post-infection with LP-BM5, SP aerosol 1 μM, 72 hours in culture)?
Its value is 3227 (854) counts per min.

What about the “reversal of effects of JP-8 exposure on all measured parameters” value (immune system) of the same substance?
Its value is “invariably reversed the effects on all measured parameters of JP-8 exposure to almost normal levels”.

And the “mean number of tumor colonies observed in both lungs” value ([1]; 1 μM SP aerosol 15 min/day 7 days starting immediately (next day))?
Its value is 39.

What about the “mean number of tumor colonies observed in both lungs” value ([1]; SP aerosol for one week starting one week after injection) of the same substance?
Its value is 1.

What about the reduction in tumors ([1]; therapy starting immediately after B16 cells injection) of the same substance?
Its reduction in tumors is 62.9%.

What about the reduction in tumors ([1]; therapy starting one week after B16 cells injection) of the same substance?
Its reduction in tumors is 97.0%.

What about the “Spleen Cytokine Production Interleukin-6” value (interleukin-6; 4 weeks after LP-BM5 infection) of the same substance?
The value was 0.1334 (0.02) nanogram/ml.

And the “Spleen Cytokine Production Interleukin-6” value (interleukin-6; [2])?
Its value is 0.1480 (0.02) nanogram/ml.

What about the “Spleen Cytokine Production Interferon-Gamma” value (interferon-gamma; 4 weeks after LP-BM5 infection) of the same substance?
The value was 1.5188 (0.21) nanogram/ml.

What about the “Spleen Cytokine Production Interferon-Gamma” value (interferon-gamma; [2]) of the same substance?
Its value is 1.072 (0.09) nanogram/ml.
